Results on one compound are retold here after US20220133702A1, “CYSTIC FIBROSIS TRANSMEMBRANE CONDUCTANCE REGULATOR MODULATORS FOR TREATING AUTOSOMAL DOMINANT POLYCYSTIC KIDNEY DISEASE” (The Johns Hopkins University, priority 2020, published 2022).

Test [1] deals with adenylyl cyclase (AC) 6 and AC3 in PN cells. The test is described as follows: Western blot of adenylyl cyclase expression. The format is cell-based, mouse. Conditions: PN cells treated with VX-809. The method, then:
(§1) FIG. 4A, FIG. 4B, FIG. 4C, FIG. 4D, and FIG. 4E show (FIG. 4A-FIG. 4B) cAMP levels are reduced by VX-809. (FIG. 4A) cAMP levels in mouse tissue were reduced by VX-809. The kidney samples (n=6) analyzed were taken from those depicted in FIG. 1. (FIG. 4B) Confluent PN and PH cells were treated with VX-809 (10 μM) or DMSO for 16 hand then treated with forskolin (100 μM) for 30 min before the cells were harvested for the assay. Columns represent means±SEM. Statistical analysis was performed using a two-tailed Student's t-test. Each set of data is from three individual wells; Note that resting cAMP is greater in PN vs PH cells as previously shown (25). Also note that forskolin caused a large increase in cAMP. A smaller increase occurred with IBMX. However, the increase induced by forskolin alone was similar to that by IBMX plus forskolin. […] (FIG. 4C, FIG. 4D, and FIG. 4E) Adenylyl cyclase expression. (FIG. 4C) Western blot showing the expression of adenylyl cyclase (AC) 6 and AC3 in treated and control PN cells. (FIG. 4D-FIG. 4E) Columns represent means±SEM of the AC3 and AC6 expression. The data were analyzed by non-parametric t-test. The experiment was repeated four times. For all graphs, *P<0.05, **P<0.01, and ***P<0.001;
There are two classes of adenylyl cyclases that are regulated by intracellular Ca^2+: one class is activated, and the other inhibited. […]
On the technique in general: In western blotting, separated proteins are transferred to a membrane and probed.

The subject of another test is PC2 in PN cells. The test is described as follows: Western blot of endogenous PC2. The format is cell-based, mouse. How it is done:
FIG. 6A and FIG. 6B show PC2 expression is unchanged by VX-809. (FIG. 6A) Western blot showing expression of PC2 in treated or control cells. (FIG. 6B) Columns represent the means±SEM of the PC2 expression. The data were analyzed by non-parametric t-test. The experiment was repeated six (control) or seven times;
PC2 is a 968-amino acid protein with an approximate molecular weight of 100 kDa in its monomeric form To determine whether VX-809 affects PC2 protein expression, western blot experiments were conducted on PN cells to determine the resting levels of endogenous PC2. The results indicated (FIG. 6) that VX-809 has no effect on PC2 expression.

The test system of another test is cAMP in PN cells. Put plainly: Cyclic AMP enzyme immunoassay in cells. The format is cell-based, mouse. The method, then: as §1
It has been shown previously in both animal and cell culture models of ADPKD that cells lacking functional PC1 have elevated cAMP levels when compared to normal. To assess the effect of CFTR correctors, cAMP activity was measured in PC1 conditional knockout mouse kidneys and in PN cells that were either left untreated or treated with VX-809. […] Cells were treated with forskolin, which increased cAMP levels drastically (FIG. 4B). It should be noted that VX-809 reduced the forskolin-induced increase in cAMP, indicating a direct action of VX-809 on adenylyl cyclase activity. […] Treating PN cells with forskolin or IBMX (FIG. 4B) increased the cAMP activity by approximately 10-fold.
Cyclic AMP assay. Confluent cells were treated with VX-809 (10 μM) or DMSO for 16 h before being harvested for assay. Cyclic AMP levels were measured with a direct cAMP Enzyme Immunoassay Kit (Sigma, #CA200) according to the manufacturer's protocol. The results are expressed as pmole/ml. Statistical analysis was performed using a two-tailed Student's t-test.

Test [2] has as its system PC2 in Pkd1^fl/fl; Pax8^rtTA; TetO-cre mice. The test is described as follows: Immunoblot of PC2 protein in kidney tissue, PC1-null model. The test is classed as in vivo, mouse. Conditions: doxycycline plus VX-809. How it is done: The levels of PC2 protein were analyzed in two mouse models of ADPKD: Pkd1^fl/fl; Pax8^rtTA; TetO-cre, which is PC1 null, and the Pkd1^R3277C/R3277C (pkd1^RC/RC) which has a missense mutation in PC1. Pkd1^RC/RC mice develop a consistent, slowly progressing polycystic kidney disease. Pkd1^RC/RC mice were treated daily with VX-809, beginning at one month, and euthanized at 6 months.
Mice were treated without doxycycline (ND), with doxycycline plus DMSO (D), or with doxycycline plus VX809 (D+VX809), as indicated. Three mice were analyzed for each treatment.
In the Pkd1^fl/fl mice, doxycycline-induced cyst formation increases PC2 protein.

The subject of another test is CFTR. The test is described as follows: Confocal localization of CFTR with ER, Golgi and PM markers. Conditions: treated vs control cells, Pearson's correlation with markers. The format is cell-based. The source says:
FIG. 18A and FIG. 18B show images of confocal microscopy localization studies of CFTR and localization markers in control and treated cells (FIG. 18A) and graphs showing Pearson's correlation coefficient for CFTR and localization markers in control and VX-809 treated cells (FIG. 18B).
The localization of PC2 and CFTR in control cells was compared to the localization of PC2 and CFTR localization in VX-809 treated cells.

The test system of test [3] is PC2 in the primary cilium. The test is described as follows: Confocal microscopy of PC2 in cilia of kidney sections. Conditions: doxycycline plus VX-809 vs doxycycline plus DMSO. The test is classed as in vivo, mouse. How it is done:
To determine the location of PC2 in the cilia, confocal microscopy experiments using the Pkd1^fl/fl; Pax8^rtTA TetO-cre mouse model were conducted. These mice, when injected intraperitoneally (IP) with doxycycline on postnatal days (PND) 11, 12, and 13, developed multiple large cysts and large polycystic kidneys at approximately 3 weeks of age.
Mice were treated without doxycycline (NoDoxy), with doxycycline plus DMSO (Doxy), or with doxycycline plus VX809 (Doxy VX809), as indicated. PC2 staining is shown in red, acetylated (ac) αtubulin is shown in green, regions of colocalization of PC2 and ac-atubulin are shown in yellow. Scale bar is 10 μm. All pictures were taken with a 63× objective.
FIG. 21 is a graph of the percentage of cells with ciliary staining. Mice were treated without doxycycline (NoDoxy), with doxycycline plus DMSO (Doxy), or with doxycycline plus VX809 (Doxy VX809), as indicated, and kidney cells were analyzed. Pearson's coefficient was measured using at least 10 cells per image. Three animals were analyzed for each maneuver.
In normal mice PC2 is located in the primary cilium.

Consider `Cc1ccc(NC(=O)C2(c3ccc4c(c3)OC(F)(F)O4)CC2)nc1-c1cccc(C(=O)O)c1` [VX-809, lumacaftor], for which, in test [1], the AC3 levels result is “decreased” and the AC6 regulation result is on record as “Regulates AC3 but not AC6”. Further, the PC2 expression result in the test on PC2 in PN cells is given as “no effect”. Moreover, the “resting cAMP levels” value in the test on cAMP in PN cells (10 μM, 16 h, PN cells, no forskolin) is “significantly decreased”. For the same compound, the “forskolin-induced increase in cAMP” value in the test on cAMP in PN cells (10 μM, 16 h, then forskolin 100 μM 30 min) was “reduced”. For the same compound, the “forskolin- or IBMX-induced increases in adenylyl cyclase activity” value in the test with cAMP in PN cells (forskolin in combination with IBMX (data bars 5 and 9, FIG. 4B)) is “did not affect”. Also, the phosphodiesterase activity result in the test with cAMP in PN cells (inferred from forskolin/IBMX experiment) is “does not affect”. The “PC2 protein expression (normalized to vinculin)” value in test [2] is listed as “restores PC2 expression to near-normal values”. The CFTR localization entry in the test on CFTR was “statistically significant move of CFTR from the ER to Basolateral and Apical Membrane”. Besides, in test [3], the “PC2 in the cilium” value is “restores PC2 to the cilium” and the “colocalization of PC2 with the cilia marker ac-αtubulin” value is reported as “increases colocalization”.
